Data published in patent publication US7081461B1, “Quinazoline compounds and pharmaceutical compositions containing them” (AstraZeneca AB, priority 1999, dated 2006).

Assays:
[1] = biological target: T1, aurora2 kinase (Homo sapiens, UniProt O14965); test: In vitro aurora2 kinase inhibition test; type: biochemical
T1 construct: 6 His with spacer region and rTEV protease cleavage site (pFastBac HTc) (N); made in house; host or cells: Spodoptera frugiperda Sf21 insect cells (baculovirus, pFastBac HTc)
T1 sequence (O14965 1-403): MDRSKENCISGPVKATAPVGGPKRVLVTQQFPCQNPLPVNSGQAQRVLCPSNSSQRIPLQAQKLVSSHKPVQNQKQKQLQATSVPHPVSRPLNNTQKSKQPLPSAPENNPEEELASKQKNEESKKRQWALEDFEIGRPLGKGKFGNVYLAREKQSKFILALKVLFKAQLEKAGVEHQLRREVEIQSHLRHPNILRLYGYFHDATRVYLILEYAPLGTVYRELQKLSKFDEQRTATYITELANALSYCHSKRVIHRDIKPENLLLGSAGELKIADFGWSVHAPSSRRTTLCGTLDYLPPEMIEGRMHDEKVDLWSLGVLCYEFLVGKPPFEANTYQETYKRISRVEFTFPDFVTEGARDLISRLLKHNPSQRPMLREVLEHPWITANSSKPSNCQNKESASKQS

[2] = tested on: MCF-7 cells; test: In vitro cell proliferation assay, Assay 1 (CyQUANT cell density); type: cell-based; settings: Homo sapiens, MCF7, 72 h, MCF-7, 3 days with compound, read-out: concentration giving 50% inhibition of cell proliferation
Source text: (b) In Vitro Cell Proliferation Assay
These and other assays can be used to determine the ability of a test compound to inhibit the growth of adherent mammalian cell lines, for example the human tumour cell line MCF7.
Assay 1: MCF-7 (ATCC HTB-22) or other adherent cells were typically seeded at 1×10^3 cells per well (excluding the peripheral wells) in DMEM (Sigma Aldrich) without phenol red, plus 10% foetal calf serum, 1% L-glutamine and 1% penicillin/streptomycin in 96 well tissue culture treated clear plates (Costar). The following day (day 1), the media was removed from a no treatment control plate and the plate stored at −80° C. […] The fluorescence of the wells was then measured using a fluorescence microplate reader (gain 70, 2 reads per well, 1 cycle with excitation 485 nm and emission 530 nm using a CytoFluor plate reader (PerSeptive Biosystems Inc.)). […]

[3] = tested on: MCF7 cells; test: In vitro cell cycle analysis assay (FACS, propidium iodide); type: cell-based, human; settings: MCF7, 24.8 μM, 24 hours
Experimental: (c) In Vitro Cell Cycle Analysis Assay
This assay determines the ability of a test compound to arrest cells in specific phases of the cell cycle. Many different mammalian cell lines could be used in this assay and MCF7 cells are included here as an example. MCF-7 cells were seeded at 3×10^5 cells per T25 flask (Costar) in 5 ml DMEM (no phenol red 10% FCS, 1% L-glutamine 1% penicillin/streptomycin). Flasks were then incubated overnight in a humidified 37° C. incubator with 5% CO2. The following day 1 ml of DMEM (no phenol red 10% FCS, 1% L-glutamine 1% penicillin/streptomycin) carrying the appropriate concentration of test compound solubilised in DMSO was added to the flask. A no compound control treatments was also included (0.5% DMSO). The cells were then incubated for a defined time (usually 24 hours) with compound. After this time the media was aspirated from the cells and they were washed with 5 ml of prewarmed (37° C.) sterile PBSA, then detached from the flask by brief incubation with trypsin and followed by resuspension in 10 ml of 1% Bovine Serum Albumin (BSA, Sigma-Aldrich Co.) in sterile PBSA. The samples were then centrifuged at 2200 rpm for 10 min. The supernatant was aspirated and the cell pellet was resuspended in 200%1 of 0.1% (w/v) Tris sodium citrate, 0.0564% (w/v) NaCl, 0.03% (v/v) Nonidet NP40, [pH 7.6]. Propridium Iodide (Sigma Aldrich Co.) was added to 40 μg/ml and RNAase A (Sigma Aldrich Co.) to 100 μg/ml. The cells were then incubated at 37° C. for 30 minutes. The samples were centrifuged at 2200 rpm for 10 min, the supernatant removed and the remaining pellet (nuclei) resuspended in 200%1 of sterile PBSA. […] The samples were then transferred to LPS tubes and DNA content per cell analysed by Fluorescence activated cell sorting (FACS) using a FACScan flow cytometer (Becton Dickinson). Typically 25000 events were counted and recorded using […]. Cell cycle distribution of the population was calculated using Modfit software (Verity Software) and expressed as percentage of cells in G0/G1, S and G2/M phases of the cell cycle.

COc1ccnc(COc2ccc(Nc3ncnc4cc(OC)c(OC)cc34)cc2C)c1 [Compound 43]
IC50 [1]: 0.465 µM | IC50 [2]: 12.4 µM | % Cells in G1 [3]: 37.29% | % Cells in G2/M [3]: 28.78% | % Cells in S [3]: 33.93%
